Data from US9101133B2, “Phenyl-substituted bicyclooctane-1,3-dione-derivatives” (BAYER INTELLECTUAL PROPERTY GMBH, priority 2010, dated 2015).

Tests used:
SETVI [1] = test: Herbicidal post-emergence action; type: in vivo; settings: visual assessment after about three weeks, 100% = plants have died; for herbicidal effect in percent, SETVI: 80 g/ha
Procedure: (§1) 2. Herbicidal Post-Emergence Action
(§2) • Seeds of monocotylidonous and dicotylidonous weed and crop plants are placed in sandy loam in wood fibre pots, covered with soil and cultivated in a greenhouse under good growth conditions. Two to three weeks after sowing, the test plants are treated at the one-leaf stage. The test compounds, formulated as wettable powders (WP), are then with a water application rate of 600 l/ha (converted), with 0.2% of wetting agent added, sprayed onto the green parts of the plants in different amounts. After the test plants have been kept in the greenhouse under optimum growth conditions for about three weeks, the effect of the preparations is assessed visually in comparison to untreated controls (herbicidal effect in percent: 100% effect=the plants have died, 0% effect=like control plants). Post-Emergence, 80 g/ha

VERPE = test: Herbicidal post-emergence action; type: in vivo; settings: 80 g/ha, visual assessment after about three weeks, 100% = plants have died
Procedure: as §1, §2

ECHCG = test: Herbicidal post-emergence action; type: in vivo; settings: 80 g/ha, visual assessment after about three weeks, 100% = plants have died
Procedure: as §1, §2

ALOMY = test: Herbicidal post-emergence action; type: in vivo; settings: 80 g/ha, visual assessment after about three weeks, 100% = plants have died
Procedure: as §1, §2

LOLMU = test: Herbicidal post-emergence action; type: in vivo; settings: 80 g/ha, visual assessment after about three weeks, 100% = plants have died
Procedure: as §1, §2

AVEFA [2] = test: Herbicidal post-emergence action; type: in vivo; settings: 80 g/ha, visual assessment after about three weeks, 100% = plants have died
Procedure: as §1, §2

[3] = test system: green peach aphid (Myzus persicae); test: Myzus test (MYZUPE spray treatment); type: in vivo; settings: application rate of 500 g/ha; Chinese cabbage leaf discs sprayed; after 6 days
Procedure: Solvents: 78 parts by weight of acetone
• 1.5 parts by weight of dimethylformamide Emulsifier: 0.5 part by weight of alkylaryl polyglycol ether
To produce a suitable preparation of active compound, one part by weight of active compound is mixed with the stated amounts of solvents and emulsifier, and the concentrate is diluted with emulsifier-containing water to the desired concentration.
Discs of Chinese cabbage leaves (Brassica pekinensis) which are infested by all stages of the green peach aphid (Myzus persicae) are sprayed with an active compound preparation of the desired concentration.
After 6 days, the effect in % is determined 100% means that all aphids have been killed; 0% means that none of the aphids have been killed.

PHAMI = test: Herbicidal post-emergence action; type: in vivo; settings: 100 g/ha, visual assessment after about three weeks, 100% = plants have died
Procedure: as §1
as §2, with “Post-Emergence, 80 g/ha” left out

POAAN = test: Herbicidal post-emergence action; type: in vivo; settings: 100 g/ha, visual assessment after about three weeks, 100% = plants have died
Procedure: as §1
as §2, with “Post-Emergence, 80 g/ha” left out

APESV = test: Herbicidal post-emergence action; type: in vivo; settings: 100 g/ha, visual assessment after about three weeks, 100% = plants have died
Procedure: as §1
as §2, with “Post-Emergence, 80 g/ha” left out

AVEFA [4] = test: Herbicidal post-emergence action; type: in vivo; settings: 100 g/ha, visual assessment after about three weeks, 100% = plants have died
SETVI [5] = test: Herbicidal post-emergence action; type: in vivo; settings: 504 h, visual assessment after about three weeks, 100% = plants have died, read-out: herbicidal effect in percent, SETVI
POLCO = test: Herbicidal post-emergence action; type: in vivo; settings: 80 g/ha, visual assessment after about three weeks, 100% = plants have died
Procedure: as §1, §2

Row | Structure (SMILES) | herbicidal effect in percent, SETVI (SETVI [1]) | herbicidal effect in percent, VERPE (VERPE) | herbicidal effect in percent, ECHCG (ECHCG) | herbicidal effect in percent, ALOMY (ALOMY) | herbicidal effect in percent, LOLMU (LOLMU) | herbicidal effect in percent, AVEFA (AVEFA [2]) | effect in % (aphids killed) [3] | also measured
1 | C=C1CC2C(=O)C(c3c(CC)cc(C)cc3CC)=C(OCc3ccccc3)C2C1 (stereo not drawn) [I-a-0, 3-(Benzyloxy)-2-(2,6-diethyl-4-methylphenyl)-5-methylene-4,5,6,6a-tetrahydropentalen-1(3aH)-one] | – | – | – | – | – | – | – | melting point: 87 to 88 °C
2 | CCc1cc(C)cc(CC)c1C1C(=O)C2CC(CCC#N)CC2C1=O (mixture of isomers) [I-a-37] | 100% | 80% | 100% | 100% | 100% | 100% | – | –
3 | CCOC(=O)OC1=C(c2c(CC)cc(C)cc2CC)C(=O)C2CC(C=CC#N)CC12 (mixture of isomers) [I-c-22] | 100% | 90% | 100% | 80% | – | 100% | 100% | –
4 | CCOC(=O)OC1=C(c2c(CC)cc(C)cc2CC)C(=O)C2CC(C(OC)OC)CC12 (stereo not drawn) [I-c-1, 2-(2,6-Diethyl-4-methylphenyl)-5-(dimethoxymethyl)-3-oxo-3,3a,4,5,6,6a-hexahydropentalen-1-yl ethyl carbonate] | – | – | – | – | – | – | – | herbicidal effect in percent, PHAMI (PHAMI): 99%; herbicidal effect in percent, POAAN (POAAN): 85%; herbicidal effect in percent, APESV (APESV): 100%; herbicidal effect in percent, AVEFA (AVEFA [4]): 80%; pest or weed control at 100 g/ha (SETVI [5]): 97%
5 | CCc1cc(C)cc(CC)c1C1=C(OCc2ccccc2)C2CC(C=CC#N)CC2C1=O (mixture of isomers) [I-a-59] | – | – | – | – | – | – | 100% | –
6 | CCc1cc(C)cc(CC)c1C1C(=O)C2CC(COCOC)CC2C1=O (stereo not drawn) [I-a-40, 2-(2,6-diethyl-4-methylphenyl)-5-methoxymethoxymethyltetrahydropentalene-1,3-dione] | – | – | – | 100% | 100% | 90% | – | pest or weed control at 80 g/ha (SETVI [1]; 504 h, read-out: herbicidal effect in percent, SETVI): 90%; herbicidal effect in percent, POLCO (POLCO): 100%
